Data as given in article PMC4804213, “Human EAG channels are directly modulated by PIP2 as revealed by electrophysiological and optical interference investigations” (Scientific Reports, 2016).
Where two headings read alike, the source gives them in different places.

Columns and labels:
hEAG1 (Kv10.1, KCNH1) [1] = biological target: T1, hEAG1 (Kv10.1, KCNH1) (Homo sapiens, UniProt O95259); test: patch clamp, peak current inhibition at […] mV, Hill fit; format: cell-based
T1 construct: full length; untagged in pcDNA3.1 transiently in CHO cells (patch clamp); tetramer
T1 sequence (O95259 1-962 isoform O95259-2): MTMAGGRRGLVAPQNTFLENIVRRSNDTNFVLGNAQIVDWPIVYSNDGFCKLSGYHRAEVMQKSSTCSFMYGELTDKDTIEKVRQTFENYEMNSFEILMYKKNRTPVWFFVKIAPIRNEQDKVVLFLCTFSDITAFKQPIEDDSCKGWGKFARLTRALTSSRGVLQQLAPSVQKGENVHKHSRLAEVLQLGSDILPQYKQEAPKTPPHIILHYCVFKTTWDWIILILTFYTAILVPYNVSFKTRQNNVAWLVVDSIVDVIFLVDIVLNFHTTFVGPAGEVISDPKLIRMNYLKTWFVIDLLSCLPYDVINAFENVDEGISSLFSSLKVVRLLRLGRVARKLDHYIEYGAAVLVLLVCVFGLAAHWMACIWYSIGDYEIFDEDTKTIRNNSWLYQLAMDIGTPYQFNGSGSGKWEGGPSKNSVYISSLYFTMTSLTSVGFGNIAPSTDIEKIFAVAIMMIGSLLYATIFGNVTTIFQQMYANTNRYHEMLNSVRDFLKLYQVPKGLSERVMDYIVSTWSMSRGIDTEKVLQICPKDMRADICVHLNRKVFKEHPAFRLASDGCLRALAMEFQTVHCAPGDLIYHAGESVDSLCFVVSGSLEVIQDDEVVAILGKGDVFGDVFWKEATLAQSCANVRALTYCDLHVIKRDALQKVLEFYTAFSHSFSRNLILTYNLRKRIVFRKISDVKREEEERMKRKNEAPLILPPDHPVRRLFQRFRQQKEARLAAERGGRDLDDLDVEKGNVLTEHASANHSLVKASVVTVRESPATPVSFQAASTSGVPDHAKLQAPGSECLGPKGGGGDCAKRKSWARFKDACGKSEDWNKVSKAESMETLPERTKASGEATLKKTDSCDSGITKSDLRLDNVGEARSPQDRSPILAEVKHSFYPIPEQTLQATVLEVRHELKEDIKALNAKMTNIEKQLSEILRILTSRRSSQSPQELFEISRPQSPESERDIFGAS

hEAG1 (Kv10.1, KCNH1) [2] = biological target: T1, hEAG1 (Kv10.1, KCNH1); test: bio-layer interferometry, biotinylated FLAG-tagged channel on streptavidin sensor, Hill fit; format: binding; conditions: 200-s cumulative application epochs; PBS, 0.02% Tween-20, 0.1% BSA, pH 7.4; room temperature; brain-derived lipid of mixed acyl chains

Compound | IC50 (hEAG1 (Kv10.1, KCNH1) [1]) [µM] | IC50 (hEAG1 (Kv10.1, KCNH1) [1]; 200-s application to the intracellular side, peak current at 40 mV, room temperature, brain-derived lipid of mixed acyl chains) [µM] | Kd (hEAG1 (Kv10.1, KCNH1) [2]) [µM]
CCCCCCCC(=O)OC[C@H](COP(=O)(O)O[C@@H]1[C@H](O)[C@H](O)[C@@H](OP(=O)(O)O)[C@H](OP(=O)(O)O)[C@H]1O)OC(=O)CCCCCCC [diC8-PIP2] | 18.6 ± 0.6 |  | 
PIP2 |  | 0.35 ± 0.01 | 0.35 ± 0.04
